For one assay, the system named is brains, heart, liver, muscle, and DRG of the NHPs. Kind of assay: Maturation of TTM-001 and TTM-002 capsids, NGS enrichment in NHP tissues. It counts as in vivo. To be noted: NHP DRG; NGS; relative to AAV9 control. The source says: This Example describes maturation of the AAV9 capsid variants, TTM-001 (SEQ ID NO: 981 (amino acid) and 983 (DNA), comprising SEQ ID NO: 941 (encoded by SEQ ID NO: 942)) and TTM-002 (SEQ ID NO: 982 (amino acid) and 984 (DNA), comprising SEQ ID NO: […] (encoded by SEQ ID NO: 944)) in NHPs to further enhance their transduction and biodistribution in the central nervous system as well as other tissues, and evolve the AAV capsid variants to provide further cross-species compatibility. Two approaches were used to mature the TTM-001 and TTM-002 capsid sequences in order to randomize and mutate within and around the peptide insert comprised within loop IV of the capsid variant. […] In the first maturation approach, sets of three contiguous amino acids were randomized across the mutagenesis region in the TTM-001 and TTM-002 sequences, which spanned from position 450 to position 466, numbered according to SEQ ID NO: 981 and 982. In the second maturation approach, mutagenic primers were used to introduce point mutations at a low frequency, scattered across the mutagenesis region in the TTM-001 and TTM-002 sequences ranging from position 449 to position 466, numbered according to SEQ ID NO: 981 and 982. AAV capsid variants arising from each maturation approach for TTM-001 and TTM-002 were pooled together, for subsequent testing and characterization in NHPs.
The library of pooled matured AAV capsid variants generated using the first maturation approach and the second maturation approach for the TTM-001 and TTM-002 AAV capsid variants were injected into two NHPs. […] Following RNA recovery and RT-PCR amplification, a systematic NGS enrichment analysis was performed to calculate the fold enrichment ratio relative to an AAV9 control, and the peptides comprised within the variants were identified.
Following the RNA recovery and NGS analysis from the second maturation approach, approximately 680,000 capsid variants were identified. The 680,000 matured capsid variants were then filtered based on samples with a raw virus count greater than 10 and a coefficient of variance (CV) of less than 1, which was calculated for each peptide across the brain samples taken from the two NHPs. […] Using this filtering criteria, this led to approximately 64,000 matured capsid variants.
Turning to KTINGSGSPHRWLQNQQT, the “Fold Enrichment relative to AAV9, DRG (NHP)” value worked out at 0.000 fold.

Consider KTINLGCSPHSKAQNQQT, for which the “Fold Enrichment relative to AAV9, DRG (NHP)” value stood at 0.000 fold.

Consider KTINGSGSPHSKSEQQQT, for which the “Fold Enrichment relative to AAV9, DRG (NHP)” value stood at 0.000 fold.

Regarding KTINGSGSPHPKRQNQQT, the “Fold Enrichment relative to AAV9, DRG (NHP)” value came out at 0.000 fold.

For KTINGSGSPHSKIRGQQT, the “Fold Enrichment relative to AAV9, DRG (NHP)” value was determined as 0.000 fold.

Consider KTKLCSGSPHSKAQNQQT, for which the “Fold Enrichment relative to AAV9, DRG (NHP)” value is listed as 0.000 fold.

As for KTINGSGSPHQGCQNQQT, the “Fold Enrichment relative to AAV9, DRG (NHP)” value is 0.000 fold.

KTINGSGSPHSGKRNQQT: the “Fold Enrichment relative to AAV9, DRG (NHP)” value is on record as 0.000 fold.

KTINGSGSPHSGACNQQT: the “Fold Enrichment relative to AAV9, DRG (NHP)” value was 0.000 fold.

As for KTINGSGSPHSLCLNQQT, the “Fold Enrichment relative to AAV9, DRG (NHP)” value was 0.000 fold.

The same assay, now with this note: NHP brain; NGS; relative to AAV9 control.
Regarding KTINGSGSPHRWLQNQQT, the “Fold Enrichment relative to AAV9, Brain (NHP)” value is 0.000 fold.

With KTINLGCSPHSKAQNQQT, the “Fold Enrichment relative to AAV9, Brain (NHP)” value is on record as 0.000 fold.

KTINGSGSPHSKSEQQQT: the “Fold Enrichment relative to AAV9, Brain (NHP)” value is 0.000 fold.

For KTINGSGSPHPKRQNQQT, the “Fold Enrichment relative to AAV9, Brain (NHP)” value was found to be 0.000 fold.

Turning to KTINGSGSPHSKIRGQQT, the “Fold Enrichment relative to AAV9, Brain (NHP)” value came out at 0.000 fold.

On to KTKLCSGSPHSKAQNQQT, for which the “Fold Enrichment relative to AAV9, Brain (NHP)” value was determined as 0.000 fold.

For the sequence KTINGSGSPHQGCQNQQT, the “Fold Enrichment relative to AAV9, Brain (NHP)” value is on record as 0.000 fold.

Take KTINGSGSPHSGKRNQQT: the “Fold Enrichment relative to AAV9, Brain (NHP)” value is reported as 0.000 fold.

Turning to KTINGSGSPHSGACNQQT, the “Fold Enrichment relative to AAV9, Brain (NHP)” value is 0.000 fold.

On to KTINGSGSPHSLCLNQQT, for which the “Fold Enrichment relative to AAV9, Brain (NHP)” value is 0.000 fold.

The assay is the same for the next values; noted with them: NHP heart; NGS; relative to AAV9 control.
Consider KTINGSGSPHRWLQNQQT, for which the “Fold Enrichment relative to AAV9, Heart (NHP)” value amounted to 0.000 fold.

Consider KTINLGCSPHSKAQNQQT, for which the “Fold Enrichment relative to AAV9, Heart (NHP)” value is recorded as 0.000 fold.

Turning to KTINGSGSPHSKSEQQQT, the “Fold Enrichment relative to AAV9, Heart (NHP)” value is 0.000 fold.

For KTINGSGSPHPKRQNQQT, the “Fold Enrichment relative to AAV9, Heart (NHP)” value stood at 0.000 fold.

For KTINGSGSPHSKIRGQQT, the “Fold Enrichment relative to AAV9, Heart (NHP)” value came out at 0.000 fold.

Turning to KTKLCSGSPHSKAQNQQT, the “Fold Enrichment relative to AAV9, Heart (NHP)” value stood at 0.000 fold.

As to KTINGSGSPHQGCQNQQT, the “Fold Enrichment relative to AAV9, Heart (NHP)” value stood at 0.000 fold.

Consider KTINGSGSPHSGKRNQQT, for which the “Fold Enrichment relative to AAV9, Heart (NHP)” value came out at 0.000 fold.

Regarding KTINGSGSPHSGACNQQT, the “Fold Enrichment relative to AAV9, Heart (NHP)” value amounted to 0.000 fold.

KTINGSGSPHSLCLNQQT: the “Fold Enrichment relative to AAV9, Heart (NHP)” value is reported as 0.000 fold.

The assay is the same for the next values; noted with them: NHP liver DNA; NGS; relative to AAV9 control.
Turning to KTINGSGSPHRWLQNQQT, the “Fold Enrichment relative to AAV9, Liver DNA (NHP)” value was 6.882 fold.

In the case of KTINLGCSPHSKAQNQQT, the “Fold Enrichment relative to AAV9, Liver DNA (NHP)” value came out at 0.654 fold.

Take KTINGSGSPHSKSEQQQT: the “Fold Enrichment relative to AAV9, Liver DNA (NHP)” value worked out at 1.769 fold.

As for KTINGSGSPHPKRQNQQT, the “Fold Enrichment relative to AAV9, Liver DNA (NHP)” value is 2.355 fold.

KTINGSGSPHSKIRGQQT: the “Fold Enrichment relative to AAV9, Liver DNA (NHP)” value came to 1.584 fold.

On to KTKLCSGSPHSKAQNQQT, for which the “Fold Enrichment relative to AAV9, Liver DNA (NHP)” value was 2.139 fold.

On to KTINGSGSPHQGCQNQQT, for which the “Fold Enrichment relative to AAV9, Liver DNA (NHP)” value stood at 1.037 fold.

As for KTINGSGSPHSGKRNQQT, the “Fold Enrichment relative to AAV9, Liver DNA (NHP)” value was 5.396 fold.

For the sequence KTINGSGSPHSGACNQQT, the “Fold Enrichment relative to AAV9, Liver DNA (NHP)” value is 3.215 fold.

Take KTINGSGSPHSLCLNQQT: the “Fold Enrichment relative to AAV9, Liver DNA (NHP)” value was determined as 1.790 fold.

The assay is the same for the next values; noted with them: NHP liver RNA; NGS; TTM-001 and TTM-002 matured AAV capsid variants; relative to AAV9 control.
As for KTINGSGSPHRWLQNQQT, the “Fold Enrichment relative to AAV9, Liver RNA (NHP)” value was 28.147 fold.

Consider KTINLGCSPHSKAQNQQT, for which the “Fold Enrichment relative to AAV9, Liver RNA (NHP)” value is reported as 12.564 fold.

For KTINGSGSPHSKSEQQQT, the “Fold Enrichment relative to AAV9, Liver RNA (NHP)” value is 11.785 fold.

Regarding KTINGSGSPHPKRQNQQT, the “Fold Enrichment relative to AAV9, Liver RNA (NHP)” value is reported as 23.055 fold.

Turning to KTINGSGSPHSKIRGQQT, the “Fold Enrichment relative to AAV9, Liver RNA (NHP)” value was 18.150 fold.

As to KTKLCSGSPHSKAQNQQT, the “Fold Enrichment relative to AAV9, Liver RNA (NHP)” value stood at 12.570 fold.

Regarding KTINGSGSPHQGCQNQQT, the “Fold Enrichment relative to AAV9, Liver RNA (NHP)” value turned out to be 17.676 fold.

On to KTINGSGSPHSGKRNQQT, for which the “Fold Enrichment relative to AAV9, Liver RNA (NHP)” value is reported as 35.120 fold.

With KTINGSGSPHSGACNQQT, the “Fold Enrichment relative to AAV9, Liver RNA (NHP)” value is 39.163 fold.

Regarding KTINGSGSPHSLCLNQQT, the “Fold Enrichment relative to AAV9, Liver RNA (NHP)” value came to 17.028 fold.

The same assay, now with this note: NHP muscle; NGS; relative to AAV9 control.
KTINGSGSPHRWLQNQQT: the “Fold Enrichment relative to AAV9, Muscle (NHP)” value came to 0.000 fold.

As for KTINLGCSPHSKAQNQQT, the “Fold Enrichment relative to AAV9, Muscle (NHP)” value was 0.000 fold.

On to KTINGSGSPHSKSEQQQT, for which the “Fold Enrichment relative to AAV9, Muscle (NHP)” value came to 0.000 fold.

For KTINGSGSPHPKRQNQQT, the “Fold Enrichment relative to AAV9, Muscle (NHP)” value is 0.000 fold.

Consider KTINGSGSPHSKIRGQQT, for which the “Fold Enrichment relative to AAV9, Muscle (NHP)” value worked out at 0.000 fold.

Turning to KTKLCSGSPHSKAQNQQT, the “Fold Enrichment relative to AAV9, Muscle (NHP)” value stood at 0.000 fold.

In the case of KTINGSGSPHQGCQNQQT, the “Fold Enrichment relative to AAV9, Muscle (NHP)” value came to 0.000 fold.

As to KTINGSGSPHSGKRNQQT, the “Fold Enrichment relative to AAV9, Muscle (NHP)” value is listed as 0.000 fold.

Turning to KTINGSGSPHSGACNQQT, the “Fold Enrichment relative to AAV9, Muscle (NHP)” value is on record as 4733.916 fold.

KTINGSGSPHSLCLNQQT: the “Fold Enrichment relative to AAV9, Muscle (NHP)” value is reported as 0.000 fold.

For the origin of these results see patent US20260250318A1, “COMPOSITIONS AND METHODS FOR CROSSING THE BLOOD BRAIN BARRIER” (VOYAGER THERAPEUTICS, INC., priority 2022, published 2026).
